In brackets after ≈: the same amount, converted by molar mass. Counter-ions that a name gives are not always drawn.
How the values were obtained:
[1] = system: VEGF non-dependent human umbilical vein endothelial cells (HUVEC); assay: Cell growth inhibition test, VEGF non-dependent HUVEC; type: cell-based; conditions: 72 hours, WST-1, read-out: HUVEC (VEGF Nondependence), 50% Growth Inhibition Concentration (IC50 value)
Description: (§1) Cell Growth Inhibition Test
(§2) With respect to the compounds relating to the present invention and the known compound (BAY 43-9006), cell growth inhibition activity was measured.
(§3) A sample compound was in-series diluted with dimethyl sulfoxide, and then was 1/50 diluted with a Ca^2+- and Mg^2+-free phosphate-bufferized physiological saline and its 20 μL was poured to a 96-well plate. […] Each of these cell suspensions was dividedly poured to the sample added plate in 180 μL/well and cultured in a 5% carbon dioxide incubator at 37° C. After 72 hours, 20 μL of WST-(HCT 116, a product of Dojin) or WST-1 (HUVEC, a product of Roche diagnostics) was added thereto to each well and the absorbance at 450 nm (reference wavelength: 650 nm) was measured. From the growth inhibition ratio of addition of the sample compound to no-addition of the sample compound as a reference, the 50% growth inhibition IC50) of the sample compound was calculated.
(§4) With respect to the group of representative compounds of the present invention, the IC50 values of HCT 116 and HUVEC (VEGF nondependent growth and VEGF dependent growth) are shown in Tables 5-1 to 5-3.

[2] = system: VEGF dependent HUVEC; assay: Cell growth inhibition test, VEGF dependent HUVEC; type: cell-based; conditions: Homo sapiens, 20 ng/mL of VEGF, 72 hours, WST-1, read-out: HUVEC (VEGF Dependence), 50% Growth Inhibition Concentration (IC50 value)
Description: as §1, §2, §3, §4

[3] = system: human colorectal cancer cell strain HCT 116; assay: Cell growth inhibition test, HCT 116; type: cell-based; conditions: 72 hours, read-out: HCT116, 50% Growth Inhibition Concentration (IC50 value)
Description: as §1, §2, §3, §4

[4] = Solubility to fasted state simulated intestinal fluid; type: physicochemical; conditions: fassif, kinetic from dmso stock, fasted state simulated intestinal fluid (pH 6.5), 37° C.
Description: Method of Measuring Solubility to Fasted State Simulated Intestinal Fluid
To a 96-well plate, 2 μL of a dimethyl sulfoxide solution of the compound relating to the present invention or that of the compound BAY 43-9006 was poured at one time, respectively, and fasted state simulated intestinal fluid (pH 6.5) was added 200 μL by 200 μL, and the plate was shaken at 37° C. for 20 hours. The solution was filtered with a membrane filter and 101 μL of the filtrate was transferred to an UV plate, and 100 μL of a mixed solution of ethanol:water=2:1 was added thereto. On the other hand, as a standard solution, 2 μL of a dimethyl sulfoxide solution was added to a solution containing 4 μL of dimethyl sulfoxide, 400 μL of ethanol and 200 μL of water and the obtained solution was transferred 101 μL by 101 μL to the UV plate and to this UV plate, the simulated fasting bile-containing intestinal juice (pH 6.5) was added 100 μL by 100 μL. The solubility was calculated by the following equation. Solubility=(absorbance of sample solution-blank)/(absorbance of standard solution-blank)×[…]
165 μL is a concentration of the standard solution.
Composition of Fasted State Simulated Intestinal Fluid
Fasted state simulated intestinal fluid was prepared in accordance with E. Galia et al., Pharm. Res., 698, 1998.
To about 90 mL of water, 161 mg of taurocholic acid, 59 mg of L-α-phosphatidylcholine, 0.39 g of potassium dihydrogenphosphate and 0.77 g of potassium chloride were added and the pH of the mixture solution […] and the mixture solution was filtered with a membrane filter.

[5] = target: T1, recombinant Raf-1 protein (activated type GST-Raf-1) (Homo sapiens, UniProt P04049); assay: RAF-1 enzyme inhibition test (33P incorporation into MEK 1 protein); type: biochemical; conditions: 10 μM ATP, GST-MEK1 substrate, 30° C., 45 minutes; read-out: Raf-1 Enzyme Inhibition, 50% Enzyme Inhibition Concentration (IC50 value)
T1 construct: fused on or other part: GST tag fused to Raf-1
Description: RAF-1 Enzyme Inhibition Test
With respect to the compounds relating to the present invention and the known compound (BAY 43-9006):
[drawing 660] the Raf-1 protein inhibition activity was measured. The enzymatic reaction was measured by incorporation of ^33P-phosphoric acid into MEK 1 protein by a recombinant Raf-1 protein. The activity was measured by preparing 50 μL of a reaction solution containing a dimethyl sulfoxide solution of the compound relating to the present invention or the compound BAY 43-9006 at a varied concentration [as the final concentration, the reaction solution containing […] of TRIS hydrochloric buffer (pH 7.5), 1 mM of dithiothreitol, 100 mM of sodium chloride, 10 mM of potassium fluoride, 1 mM of sodium vanadate, 10 mM of magnesium chloride, 10 μM of adenosine triphosphate (ATP, containing ^33P-ATP of 12580Bq), 2 μg of GST-MEK1 and 25 ng of an activated type GST-Raf-1]; keeping the reaction solution at 30° C. for 45 minutes; adding 100% trichloroacetic acid to the reaction solution in an amount twice the volume of the reaction solution to precipitate a proteinous component; recovering the precipitate on a glass filter; and measuring the radioactivity of the recovered product. The 50% inhibition concentration (IC50) was obtained from the inhibition ratio to a sample-free reference.
The compound BAYT 43-9006 was prepared on the basis of the description (Example 41) of WO 00/42012.

[6] = system: human colorectal cancer cell strain HCT 116; assay: Antitumor test, HCT 116 inoculated subcutaneously in nude mouse; type: in vivo, male Balb/c nude mouse; conditions: dosage 200 mg/kg, orally one time a day for 5 days, final administration day
Description: as §2
(§5) A cell suspension of a human colorectal cancer cell strain HCT 116 was prepared with a Hunks' balanced salt solution. Its 5.0×10^6 were inoculated subcutaneously to the flank of each male Balb/c nude mouse. When the mean volume of a tumor reached 200 to 250 mm^3, a sample compound was orally administered one time a day for 5 days. The tumor volume was calculated from the calculation formula: 0.5×(minor diameter)^2×(major diameter), and the tumor growth inhibition ratio was calculated from the ratio of the tumor growth of the sample administered group to that of a reference group. The dosage in the antitumor test, the tumor growth inhibition ratio on the final administration day and the reduction in body weight on day 7 after starting administration are shown in Tables 6-1 and 6-2

[7] = Antitumor test, reduction in body weight; type: in vivo, male Balb/c nude mouse; conditions: dosage 200 mg/kg, orally one time a day for 5 days, day 7 after starting administration
Description: as §5

T1 sequence (P04049 349-648 limits assumed): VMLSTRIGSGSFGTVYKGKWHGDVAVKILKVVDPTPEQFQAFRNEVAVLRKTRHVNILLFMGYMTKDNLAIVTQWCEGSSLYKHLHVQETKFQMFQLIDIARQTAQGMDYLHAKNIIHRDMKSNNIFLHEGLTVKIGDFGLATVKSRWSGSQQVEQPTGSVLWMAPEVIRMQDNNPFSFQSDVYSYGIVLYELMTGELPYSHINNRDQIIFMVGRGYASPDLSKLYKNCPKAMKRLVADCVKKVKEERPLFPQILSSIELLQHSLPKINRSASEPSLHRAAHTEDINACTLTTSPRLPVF

Row | Structure (SMILES) | IC50 [1] | IC50 [2] | IC50 [3] | solubility at 20 h [4] | IC50 [5] | Tumor Inhibition Ratio (%) [6] | Body Weight Reduction ratio (%) [7]
1 | COCCNc1ncnc2c1ncn2-c1ccc(NC(=O)Nc2ccc(Cl)c(C(F)(F)F)c2)cc1.Cl [Table 1, Compound 35, 1-(4-Chloro-3-(trifluoromethyl)phenyl)-3-{4-[6-(2-methoxy-ethylamino)purin-9-yl]phenyl}urea hydrochloride] | 2400 nM | 460 nM | 2800 nM | 24 µg/mL | – | – | –
2 | CNc1ncnc2c1ncn2-c1ccc(NC(=O)Nc2ccc(Cl)c(C(F)(F)F)c2)cc1.Cl [Table 1, Compound 36, 1-(4-Chloro-3-(trifluoromethyl)phenyl)-3-[4-(6-(methylamino)purin-9-yl)phenyl]urea hydrochloride] | 250 nM | 79 nM | 700 nM | 22 µg/mL | 110 nM | 81% | 5.9%
3 | CNC(=O)c1nccc2c1ncn2-c1ccc(NC(=O)Nc2ccc(Cl)c(C(F)(F)F)c2)cc1 [Table 1, Compound 93, 1-{4-[3-(4-Chloro-3-(trifluoro-methyl)phenyl)ureido]phenyl}-1H-imidazo[4,5-c]pyridine-4-carboxylic acid methylamide] | – | – | – | – | 53 nM | 79% | 6.0%
4 | CN(C)/C=N\c1ncnc2c1ncn2-c1ccc(NC(=O)Nc2ccc(Cl)c(C(F)(F)F)c2)cc1 [Table 1, Compound 95, N′-(9-{4-[3-(4-Chloro-3-(tri-fluoromethyl)phenyl)ureido]-phenyl}-9H-purin-6-yl}-N,N-dimethylformamidine hydro-chloride] | 2600 nM | 470 nM | 3100 nM | – | 42 nM | – | –
5 | CC(C)C[C@H](N)C(=O)Nc1ncnc2c1ncn2-c1ccc(NC(=O)Nc2ccc(Cl)c(C(F)(F)F)c2)cc1 [Table 1, Compound 96, (S)-2-Amino-4-methyl-pentanoic acid 9-{4-[3-(4-chloro-3-(tri-fluoromethyl)phenyl)ureido}-phenyl)-9H-purin-6-yl)amide hydrochloride] | 3200 nM | 91 nM | 2200 nM | 102 µg/mL | 44 nM | – | –
6 | N[C@@H](CCC(=O)Nc1ncnc2c1ncn2-c1ccc(NC(=O)Nc2ccc(Cl)c(C(F)(F)F)c2)cc1)C(=O)O [Table 1, Compound 104, (S)-2-Amino-4-(9-{4-[3-(4-chloro-3-(trifluoromethyl)-phenyl)ureido]phenyl}-9H-purin-6-ylcarbamoyl)butanoic acid hydrochloride] | 7400 nM | 930 nM | 3900 nM | – | 74 nM | – | –
7 | CN1CCN(Cc2cc(NC(=O)Nc3ccc(-n4cnc5c(N)ncnc54)cc3)cc(C(F)(F)F)c2)CC1 [Table 2, Compound 26] | – | – | – | 61 µg/mL (≈ 116 µM) | 83 nM | 72% | 5.0%
8 | CNc1ncnc2c1ncn2-c1ccc(NC(=O)Nc2cc(CN(C)C)cc(C(F)(F)F)c2)cc1 [Table 2, Compound 30, 1-(3-Dimethylaminomethyl-5-(trifluoromethyl)phenyl)-3-[4-(6-(methylamino)purin-9-yl)-phenyl]urea] | – | – | – | 105 µg/mL (≈ 217 µM) | 190 nM | 131% | 5.7%
9 | CNc1ncnc2c1ncn2-c1ccc(NC(=O)Nc2ccc(OCCN(C)C)c(C(F)(F)F)c2)cc1 [Table 2, Compound 52, 1-[4-(2-Dimethylaminoethoxy)-3-(trifluoromethyl)phenyl]-3-[4-(6-(methylamino)purin-9-yl)phenyl]urea] | 3800 nM | 270 nM | 3800 nM | 126 µg/mL (≈ 245 µM) | – | – | –
10 | CNc1ncnc2c1ncn2-c1ccc(NC(=O)Nc2ccc(OC3CCN(C)CC3)c(C(F)(F)F)c2)cc1 [Table 2, Compound 62, 1-[4-(6-(Methylamino)purin-9-yl)-phenyl]-3-[4-(1-methylpiperidin-4-yloxy)-3-(trifluoromethyl)phenyl]-urea] | 900 nM | 11 nM | 700 nM | 35 µg/mL (≈ 64.7 µM) | – | – | –
11 | CN1CCN(Cc2ccc(NC(=O)Nc3ccc(-n4cnc5cnccc54)cc3)cc2C(F)(F)F)CC1 [Table 3, Compound 18, 1-(4-Imidazo[4,5-c]pyridin-1-yl-phenyl)-3-[4-(4-methyl-piperazin-1-ylmethyl)-3-(trifluoromethyl)phenyl]urea] | 3100 nM | 26 nM | 2700 nM | – | – | – | –
12 | CNc1ncnc2c1ncn2-c1ccc(NC(=O)Nc2ccc(CN3CCN(C(C)C)CC3)c(C(F)(F)F)c2)cc1 [Table 3, Compound 28, 1-[4-(4-Isopropyl-piperazin-1-ylmethyl)-3-(trifluoromethyl)phenyl]-3-[4-(6-(methylamino)purin-9-yl)phenyl]urea] | 300 nM | 8 nM | 200 nM | – | – | – | –
13 | CNc1ncnc2c1ncn2-c1ccc(NC(=O)Nc2ccc(OCCOC)c(C(F)(F)F)c2)cc1 [Table 3, Compound 41, 1-[4-(2-Methoxy-ethoxy)-3-(trifluoromethyl)phenyl]-3-[4-(6-(methylamino)purin-9-yl)phenyl]urea] | 900 nM | 76 nM | 800 nM | – | – | – | –
14 | CNc1ncnc2c1ncn2-c1ccc(NC(=O)Nc2ccc(CN3CC(C)NC(C)C3)c(C(F)(F)F)c2)cc1 (stereo not drawn) [Table 3, Compound 46, 1-[4-(3,5-Dimethyl-piperazin-1-ylmethyl)-3-(trifluoromethyl)phenyl]-3-[4-(6-(methylamino)purin-9-yl)phenyl]urea] | 4200 nM | 290 nM | 2800 nM | 23 µg/mL (≈ 41.5 µM) | 41 nM | – | –
15 | CNc1ncnc2c1ncn2-c1ccc(NC(=O)Nc2cc(CCCN3CCOCC3)cc(C(F)(F)F)c2)cc1 [Table 3, Compound 48, 1-[4-(6-(Methylamino)purin-9-yl)phenyl]-3-[3-(3-morpholin-4-yl-propyl)-5-(trifluoromethyl)phenyl]-urea] | 3200 nM | 39 nM | 2500 nM | – | – | – | –

From US8609656B2, “Heteroarylphenylurea derivative” (Chugai Seiyaku Kabushiki Kaisha, priority 2004, dated 2013)
